The record followed here is PubChem BioAssay (NCI).

The structures appear in SMILES notation.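 The compound was tested at five concentrations on cells cultured in 96-well plates, with a 48-hour exposure period. TGI marks complete inhibition of growth.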

What all share (experiment): NCI-60 cell line screen, 48 h
Test [1] relates to SK-MEL-5 melanoma.
Test [2] relates to NCI-H23 lung.
The test system of test [3] is TK-10 renal.
Test [4] has as its system CAKI-1 renal.
Test [5] deals with HCT-116 colon.
The subject of test [6] is MALME-3M melanoma.
Test [7] deals with UO-31 renal.
The test system of test [8] is SF-539 CNS.
For test [9], the system named is SK-OV-3 ovarian.
The test system of test [10] is MDA-MB-231 breast.
Test [11] deals with M14 melanoma.
For test [12], the system named is OVCAR-8 ovarian.
Test [13] concerns SK-MEL-2 melanoma.
Test [14] concerns UACC-257 melanoma.
In test [15] the test system is MOLT-4 leukemia.
Test [16] deals with MCF7 breast.
Test [17] has as its system HT29 colon.
Test [18] has as its system MDA-MB-435.
Test [19] has as its system DU-145 prostate.
For test [20], the system named is U251 CNS.

Take `C=C1C(=O)O[C@@H]2[C@@H]3O[C@@H](C[C@@H]13)[C@](C)(O)CC/C=C(\C)CCC[C@@H]2C`: the TGI in test [1] was 30.6 µM; in test [2] it was 28 µM; in [3], 27.7 µM; in test [4] it was 28.6 µM; in test [5], 21.2 µM; in test [6] it was 26.8 µM. Moreover, the TGI was determined as 23 µM in test [7]; 24.9 µM in test [8]; 34 µM in test [9]; 37.5 µM in test [10]; 27 µM in [11]; 22.2 µM in test [12]. In addition, the TGI was 27.7 µM in [13]; 27 µM in [14]; more than 100 µM in [15]; 22.1 µM in test [16]; more than 100 µM in test [17]; 24.9 µM in test [18]. Further, the TGI in test [19] is 29.6 µM; in test [20], 22.8 µM.
For the compound `CCOC(=O)CCC(NC(=O)c1ccc(Oc2nc3ccccc3nc2-c2ccccc2)cc1)C(=O)OCC` (stereo not given), the TGI in test [1] is more than 100 µM; in test [2] it was more than 61.3 µM; in test [3], more than 56.8 µM; in test [4] it was more than 66.4 µM; in test [5], more than 49.3 µM; in test [6] it was 33 µM. Moreover, the TGI was more than 100 µM in test [7]; 15 µM in [8]; more than 67.6 µM in [9]; 65.9 µM in [10]; more than 100 µM in [11]; 16 µM in test [12]. For the same compound, the TGI in test [13] is more than 93 µM; in test [14] it was more than 100 µM; in test [15], more than 100 µM; in test [16], more than 100 µM; in test [17], 10.7 µM; in test [18], more than 100 µM. In addition, the figures for the TGI in test [19] and in test [20] were more than 100 µM and more than 94 µM, respectively.
For `COc1ccc(S(=O)(=O)NC(CCC(=O)NN)C(=O)NN)cc1` (stereo not given), the TGI in [1], in test [2], in test [3], in test [4], in test [5] and in test [6] was more than 100 µM each time. In addition, the TGI in test [7], in test [8], in test [9], in test [10], in test [11] and in test [12] was more than 100 µM in each case. In addition, the TGI in [13], in test [14], in test [15], in test [16], in test [17] and in test [18] was more than 100 µM in each case. Moreover, the TGI in test [19] and in test [20] was more than 100 µM throughout.
Consider `CC1=CC[C@H](C(C)C)C(C(O)[C@@H](C)O[Si](c2ccccc2)(c2ccccc2)C(C)(C)C)C1=O` (stereo not given in full), for which the TGI in [1] stood at 33.7 µM; in [2], 40.2 µM; in [3] it was 31.7 µM; in test [4], 36.2 µM; in [5], 28.7 µM; in [6], 52.8 µM. For the same compound, the TGI in [7] stood at 31.7 µM; in test [8] it was 44.1 µM; in test [9], 79.7 µM; in [10] it was 32.4 µM; in [11], 32.6 µM; in test [12], 54.1 µM. For the same compound, the TGI in [13] was 32 µM; in test [14], 31.5 µM; in test [15] it was more than 100 µM; in test [16], 44.2 µM; in test [17], 31.7 µM; in [18], 51.3 µM. The results for the TGI in test [19] and in test [20] were 65.4 µM and 31.8 µM, respectively.
With `O=C(c1c(F)c(F)c(F)c(F)c1F)N1CCN(C(=O)c2c(F)c(F)c(F)c(F)c2F)C1=S`, the TGI in [1] stood at 19.6 µM; in test [2], 20.1 µM; in test [3] it was 27 µM; in test [4] it was 6.89 µM; in [5], 7.72 µM; in test [6] it was 15.8 µM. In addition, the TGI in test [7] is 10 µM; in test [8], 24 µM; in test [9], 21.6 µM; in test [10], 14.4 µM; in test [11], 4.02 µM; in [12] it was 12.9 µM. Moreover, the TGI was determined as 7.33 µM in test [13]; 22 µM in test [14]; 11.4 µM in test [15]; 21.1 µM in test [16]; 12.9 µM in test [17]; 11.9 µM in test [18]. For the same compound, the values for the TGI in test [19] and in [20] were 27.2 µM and 22.2 µM, respectively.
Regarding `Cn1c(=O)n2n(c1=O)C(S(=O)(=O)c1ccccc1)C2` (stereo not given), the TGI in [1], in [2], in test [3], in test [4], in [5] and in test [6] was more than 100 µM throughout. In addition, the TGI in [7], in [8], in test [9], in test [10], in test [11] and in test [12] was more than 100 µM throughout. Besides, the TGI in test [13], in [14], in [15], in test [16], in [17] and in test [18] was more than 100 µM throughout. Also, the TGI in [19] and in [20] was more than 100 µM in each case.
Regarding `CN=c1c2c(c3[nH]c4ccccc4c4cnc1c34)NCCC2=O`, the TGI in test [1], in test [2], in [3], in test [4], in test [5] and in test [6] was more than 10 µM in each case. The TGI in test [7], in test [8], in test [9], in [10], in [11] and in test [12] was more than 10 µM in each case. The TGI in [13], in [14], in test [15], in [16], in test [17] and in test [18] was more than 10 µM each time. For the same compound, the TGI in [19] and in [20] was more than 10 µM each time.
In the case of `C=CCN1C(=O)/C(=C\c2cc(C(C)(C)C)c(O)c(C(C)(C)C)c2)NC1=S`, the TGI in [1] is 30.1 µM; in test [2], 94 µM; in test [3], 73.9 µM; in [4], 83.3 µM; in [5], 35.4 µM; in test [6], more than 100 µM. In addition, the TGI in [7] is more than 100 µM; in test [8] it was more than 100 µM; in test [9], more than 100 µM; in test [10], 34.9 µM; in test [11], 75.4 µM; in test [12], more than 100 µM. Moreover, the TGI was 31.8 µM in test [13]; 43.4 µM in [14]; more than 100 µM in test [15]; 90.5 µM in [16]; 80.7 µM in test [17]; 70.8 µM in [18]. Further, the figures for the TGI in [19] and in test [20] were 90.3 µM and 32.7 µM, respectively.
As for `CSC1=Nc2ccccc2-c2nc3ccccc3cc2C1`, the TGI in test [1], in [2], in [3], in [4], in test [5] and in [6] was more than 100 µM in each case. Also, the TGI in test [7], in [8], in [9], in test [10], in test [11] and in test [12] was more than 100 µM each time. The TGI in [13], in [14], in test [15], in test [16], in test [17] and in test [18] was more than 100 µM in each case. The TGI in test [19] and in test [20] was more than 100 µM each time.
In the case of `COC(=O)C1=CSC2(S1)C(C(=O)OC)=CSc1c2ssc1=O` (stereo not given), the TGI in test [1] came to 6.62 µM; in [2], 5.12 µM; in [3] it was 6.13 µM; in test [4] it was 10.7 µM; in test [5], 3.16 µM; in [6] it was 6.18 µM. Besides, the TGI came out at 3.25 µM in [7]; 3.17 µM in test [8]; 29.7 µM in test [9]; 4.13 µM in test [10]; 6.65 µM in test [11]; 8.47 µM in test [12]. The TGI in test [13] is 5.92 µM; in [14] it was 4 µM; in [15] it was more than 19.8 µM; in test [16] it was 2.89 µM; in test [17] it was 3.71 µM; in test [18], 4.34 µM. The TGI worked out at 3.3 µM in [19] and 3.02 µM in test [20].
As to `COc1cc2nc(-c3cccs3)nc(N3CCN(c4ccccc4C(F)(F)F)CC3)c2cc1OC`, the TGI in test [1], in [2], in test [3], in test [4], in test [5] and in test [6] was more than 100 µM throughout. In addition, the TGI in test [7], in test [8], in [9], in [10], in test [11] and in test [12] was more than 100 µM in each case. Further, the TGI in test [13], in test [14], in test [15], in test [16], in test [17] and in test [18] was more than 100 µM each time. In addition, the TGI in test [19] and in test [20] was more than 100 µM throughout.
